The target of test [1] is T1, cyclooxygenase.
T1 construct: "prepared from ram seminal vesicles"
The class given is biochemical. The protocol:
(§1) Prostaglandin H synthase isozymes-I (PGHS-I or COX-I) was prepared from ram seminal vesicles. PGHS-II or COX-II enzyme for the assay was prepared from lysates of cloned insect cell with human PGHS-II enzyme. Each assay mixture contained 600 μL of 0.1 M Tris buffer (pH 7), 1 mM phenol, 17 μg hemoglobin and 10 μL of COX-I or 20-30 μL of COX-II enzymes. Crude extracts or pure compounds were preincubated with 25-100 μg mL^−1 in DMSO for 5-minutes with COX-I or COX-II enzymes in the assay chamber at 37° C. […] Instantaneous inhibition of the enzyme was determined by monitoring the initial rate of O2 uptake using an O2 electrode.

Test [2] has as its target T2, human PGHS-II (COX-II) enzyme (Homo sapiens, UniProt P35354).
T2 construct: made in house; host or cells: insect cells (lysates)
T2 sequence (P35354 18-604): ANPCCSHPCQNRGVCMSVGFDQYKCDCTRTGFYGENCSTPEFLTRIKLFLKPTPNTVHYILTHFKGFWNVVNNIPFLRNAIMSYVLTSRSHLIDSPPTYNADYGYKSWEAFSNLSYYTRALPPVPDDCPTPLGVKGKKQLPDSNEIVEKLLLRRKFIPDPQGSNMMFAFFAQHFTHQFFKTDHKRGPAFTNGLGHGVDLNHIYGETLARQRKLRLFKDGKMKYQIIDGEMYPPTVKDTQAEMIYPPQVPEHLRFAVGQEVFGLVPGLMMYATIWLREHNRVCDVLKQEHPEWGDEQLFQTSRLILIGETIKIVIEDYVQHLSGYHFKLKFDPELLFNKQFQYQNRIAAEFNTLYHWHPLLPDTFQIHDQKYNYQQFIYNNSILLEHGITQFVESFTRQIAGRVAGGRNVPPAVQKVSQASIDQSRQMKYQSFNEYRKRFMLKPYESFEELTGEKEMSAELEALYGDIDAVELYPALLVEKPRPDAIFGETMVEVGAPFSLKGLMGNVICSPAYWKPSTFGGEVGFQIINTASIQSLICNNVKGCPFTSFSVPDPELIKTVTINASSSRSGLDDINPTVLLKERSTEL
The test can be described thus: Cyclooxygenase inhibitory assay (initial rate of O2 uptake), COX-II. The class given is biochemical. The protocol: as §1

Test [3] addresses T3, prostaglandin H endoperoxide synthase-I (COX-I) (Ovis aries, UniProt P05979).
T3 construct: was prepared from ram seminal vesicles; from tissue; host or cells: ram seminal vesicles
T3 sequence (P05979 25-600): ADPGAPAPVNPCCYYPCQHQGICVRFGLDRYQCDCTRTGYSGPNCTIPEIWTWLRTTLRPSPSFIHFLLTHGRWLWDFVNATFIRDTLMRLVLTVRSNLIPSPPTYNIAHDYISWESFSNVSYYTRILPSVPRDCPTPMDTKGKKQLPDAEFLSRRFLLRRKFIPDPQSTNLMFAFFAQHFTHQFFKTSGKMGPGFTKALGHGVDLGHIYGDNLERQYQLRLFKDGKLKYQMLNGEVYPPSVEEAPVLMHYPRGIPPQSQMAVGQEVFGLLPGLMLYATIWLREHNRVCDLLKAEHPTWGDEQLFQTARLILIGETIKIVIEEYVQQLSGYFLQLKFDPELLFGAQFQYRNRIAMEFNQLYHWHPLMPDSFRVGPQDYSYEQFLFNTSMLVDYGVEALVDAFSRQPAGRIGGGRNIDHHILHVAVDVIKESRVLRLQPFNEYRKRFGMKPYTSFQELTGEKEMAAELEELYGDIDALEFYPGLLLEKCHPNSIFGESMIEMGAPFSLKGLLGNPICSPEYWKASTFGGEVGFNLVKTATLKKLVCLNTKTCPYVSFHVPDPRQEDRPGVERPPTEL
The test can be described thus: Cyclooxygenase inhibitory assay (initial rate of O2 uptake), COX-I. The class given is biochemical, ram. As to conditions: for inhibition at 100 µg/mL: read-out: COX-I inhibitory activity. The procedure: as §1

Test [4] addresses T4, COX-II (Ovis aries, UniProt P79208).
T4 sequence (P79208 17-603): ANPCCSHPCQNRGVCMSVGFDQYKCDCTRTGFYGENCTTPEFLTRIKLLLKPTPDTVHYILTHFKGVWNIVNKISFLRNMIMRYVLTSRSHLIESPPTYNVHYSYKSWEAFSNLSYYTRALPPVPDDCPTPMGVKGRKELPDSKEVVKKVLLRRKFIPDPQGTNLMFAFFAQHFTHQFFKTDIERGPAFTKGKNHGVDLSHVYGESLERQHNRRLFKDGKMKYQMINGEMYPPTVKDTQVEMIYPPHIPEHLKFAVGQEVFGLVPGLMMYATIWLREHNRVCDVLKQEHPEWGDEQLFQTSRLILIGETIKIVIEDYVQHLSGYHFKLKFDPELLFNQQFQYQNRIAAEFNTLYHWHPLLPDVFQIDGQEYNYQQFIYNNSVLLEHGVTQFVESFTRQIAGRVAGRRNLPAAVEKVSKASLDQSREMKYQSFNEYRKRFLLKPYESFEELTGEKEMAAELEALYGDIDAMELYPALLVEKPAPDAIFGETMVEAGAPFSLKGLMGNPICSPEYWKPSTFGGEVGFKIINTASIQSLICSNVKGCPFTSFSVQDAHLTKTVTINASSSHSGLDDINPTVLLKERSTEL
As to conditions: less than 500 μM; cited from earlier work.

The subject of test [5] is COX-I. As to conditions: less than 500 μM; cited from earlier work.
[6] abbreviates: 100 μg mL^−1, compared to solvent control.

Results on 9 compounds are retold here after patent US20040028760A1, “Method of treating inflammation and inflammation-related pain” (Michigan State University, priority 2002, published 2004).

The structures appear in SMILES notation. Converted amounts (≈) assume the structure as drawn. “Also recorded” adds a separate entry of the source. Read-outs that look alike come from different tables or passages of the source.

In test [1], `CC(C)Cc1ccc(C(C)C(=O)O)cc1` (stereo not drawn) [Ibuprofen] returned an IC50 values of 2.52 µg/mL (≈ 12.2 µM).

As to `COc1cc(OC)c(OC)cc1C=O` [Synthetic 2,4,5-trimethoxybenzaldehyde, 2,4,5-trimethoxybenzaldehyde, reference compound], the “COX-II inhibition of commercial synthetic sample versus natural product (in words)” value in test [2] (25-100 μg mL^−1) is reported as “slightly lower COX-II activity than natural form”.

For `CC(C)=CCC/C(C)=C/CO` [Compound 4, geraniol], in test [2] (100 μg mL^−1), the “COX-II inhibition (result in words)” value was “not active; also recorded: did not inhibit” and the inhibition at 100 µg/mL is 0%. In test [3] (100 μg mL^−1), the “COX-I inhibition (result in words)” value was “not active; also recorded: did not inhibit” and the inhibition at 100 µg/mL was 3.15%.

Turning to `COc1cc(OC)c(OC)cc1C=O` [Compound 1, 2,4,5-trimethoxybenzaldehyde], the inhibition at 25 µg/mL in test [2] (25 μg mL^−1) is above 30%. For the same compound, the inhibition at 100 µg/mL stood at 52.7% in test [2] (100 μg mL^−1) and 3.32% in test [3]. The “selectivity towards COX-II enzyme inhibition (in words)” value in test [2] (100 μg mL^−1, COX-II versus COX-I) is on record as “selectivity towards COX-II enzyme inhibition; also recorded: selective inhibition of COX-II enzyme”. Further, in test [2] (setting [6]), the COX-II/COX-I ratio was found to be 17.68.

Turning to `CS(=O)(=O)c1ccc(C2=C(c3ccccc3)C(=O)OC2)cc1` [Vioxx, reference compound], the COX-II/COX-I ratio in test [2] is given as 75.

For `CCCCCCCC/C=C\CCCCCCCC(=O)O` [Compound 2, oleic acid], the “COX-II inhibition (in words)” value in test [4] was “not COX-I or COX-II inhibitory”. Moreover, the inhibition at 100 µg/mL came to 68.4% in test [2] (100 μg mL^−1) and 45.3% in test [3] (100 μg mL^−1). Further, the COX-II/COX-I ratio in test [2] (setting [6]) is recorded as 1.51. Also, the “COX-I inhibition (in words)” value in test [5] was “not COX-I or COX-II inhibitory”.

In test [2] (100 μg mL^−1), `C/C=C/c1cc(OC)c(OC)cc1OC` [Compound 3, trans-asarone] had a COX-II inhibitory activity of 64.39%. In addition, the COX-II/COX-I ratio in test [2] (setting [6]) is given as 1.4. The compound also came in with a COX-I inhibitory activity in test [3] (100 μg mL^−1) of 46.15%.

Turning to `COc1cc(OC)c(C(=O)O)cc1OC` [2,4,5-trimethoxybenzoicacid, reference compound], the “COX-II inhibition (result in words)” value in test [2] (100 μg mL^−1) is on record as “didn't exhibit any inhibition”. In test [3] (100 μg mL^−1), the “COX-I inhibition (result in words)” value is “didn't exhibit any inhibition”.

In the case of `COc1ccc2cc([C@H](C)C(=O)O)ccc2c1` [Naproxen, reference compound], the COX-II/COX-I ratio in test [2] amounted to 0.92. The IC50 values in test [1] (concentration at which the reference drug was assayed, isozyme not stated) turned out to be 2.06 µg/mL (≈ 8.95 µM).
